Source: patent US5366983A, “Use of quaternary ammonium compounds to remove salmonella contamination from meat products” (The Board of Trustees of The University of Arkansas, priority 1992, dated 1994)
Entries after “also recorded” stand apart in the source; their conditions may differ. Like-named read-outs stand apart in the source and are kept apart here.

Columns and labels:
[1] = system: Salmonella typhimurium on chicken skin; test: Effect of surfactants on Salmonella attached to chicken skin, drumsticks (Tables F1-F4); conditions: 4° C.
Procedure: The following experiments utilizing chicken legs were conducted to determine the killing potential of a variety of surfactants against Salmonella on the skin and free in solutions. To this end, chicken legs obtained from the Department of Agriculture at the University of Arkansas, Fayetteville, were incubated for thirty minutes at room temperature with a 1:5000 dilution of Salmonella typhimurium. The chicken legs were removed five at a time and then rinsed twice in tap water to remove the unattached and excess Salmonella. The rinse water was sampled, diluted, and then plated onto XLD pour plates. […] The chicken legs were then removed and rinsed twice in tap water to remove the released Salmonella and excess chemicals. Rinses were then sampled, diluted, and then plated onto XLD pour plates.
The chicken legs were then individually washed with 100 ml sterile double distilled water, and then shaken fifty times. Samples of the wash H2 O were diluted and plated onto XLD pour plates. The chicken legs were further swabbed after the washing step above. The swabs were then plated onto the XLD plates. A set of wash samples were enriched with TT Broth Base Hajna and then plated onto XLD plates.
All of the samples were plated in 1 ml aliquots onto XLD pour plates. A positive control sample incubated in sterile double distilled water at 4° C. was run for each of the aforementioned conditions. Treatments occurred at both 4° C. and 25° C. The data is reported as the mean number of CFU/ml. The ratio in the table represents the number of chicken legs out of a sample of ten chicken legs producing the notated number of colonies, as indicated by the +, ++, +++, or ++++.

[2] = system: Salmonella typhimurium on chicken skin; test: Prevention of attachment of Salmonella on excised chicken skin (Table F5); conditions: for CFU/ml on XLD agar: rinse water; for CFU/ml on XLD agar / Nitrocellulose lift (# of colonies): 30 minutes at room temperature; for Nitrocellulose lift (# of colonies): skin
Procedure: To determine the ability of surfactants to inhibit attachment or produce detachment of Salmonella, the following experiment was conducted. A hole was bored into the bottom of a 150 ml specimen cup. Chicken skin was excised from a drum stick and then placed over the cap of the specimen cup, and then the cap was screwed on. S. typhimurium was diluted 1:5000 with PBS or a surfactant. The surfactants were diluted appropriately. The skin was then inoculated with the solution containing the S. typhimurium and the surfactant for 30 minutes at room temperature.
Following incubation, the skin was washed. The rinse water was diluted appropriately in PBS and then plated onto XLD pour plates. The S. typhimurium was counted and reported as CFU/ml. The skin was swabbed so as to remove any remaining S. typhimurium using a nitroellulose lift and the CFU's/ml on the lift were also counted.

[3] = system: Salmonella typhimurium TA98; test: Salmonella reversion assay, TA98
Procedure: (§1) Test strains TA98 and TA100 were obtained from Bruce N. Ames (University of California, Berkley, Calif.). Mutagenicities were determined both in the absence of and in the presence of a mammalian liver S9 activating system. S9 is the 9000×g supernatant prepared from liver homogenates from Aroclor 1254 stimulated male Sprague Dawley rats. The S9 was purchased from Molecular Toxicology, Inc. (Anapolis, Md.).
(§2) Bacterial broth cultures were grown overnight at 37° with shaking in Oxoid Broth #2. For assays in the absence of S9, a 0.5 ml aliquot of 100 mM Sodium Phosphate Buffer, pH 7.4, was added to sterile 13×100 mm capped culture tubes. For assays in the presence of S9, a 0.5 ml aliquot of 10% S9 mix was added. The S9 mix consisted of 8 mM magnesium chloride, 33 mM potassium chloride, 5 mM glucose-6-phosphate, 4 mM NADP, 100 mM sodium phosphate, pH 7.4 and S9 in a concentration of approximately 1.46 mg protein/ml.
(§3) The culture tubes were placed in an ice bath and 0.1 ml of the bacterial suspension and 0.1 ml of a DMSO solution of the test compound were added. The mixture was vortexed gently and incubated at 37° for 20 minutes with shaking in a water bath. Molten top agar (2.0 ml) containing 0.5 mM histidine HCl and 0.5 mM biotin were added, and the mixture was vortexed gently and poured onto a minimal glucose plate. After allowing the agar to solidify, the plates were inverted and placed in a 37° incubator in the dark for 48 hours. The revertant (mutant) colonies were counted and the background lawn was examined on all plates. A response that was two times that of the DMSO solvent control was considered a positive response.

[4] = system: Salmonella typhimurium TA100; test: Salmonella reversion assay, TA100
Procedure: as §1, §2, §3

[5] = system: Salmonella typhimurium TA98; test: Salmonella reversion assay after heating at 205° C., TA98; format: cell-based
Procedure: (§4) Test strains TA98 and TA100 were used. Again, mutagenicities were determined both in the absence and in the presence of the mammalian liver S9 activating system.
(§5) A response that was two times that of the solvent control was considered a positive response.

[6] = system: Salmonella typhimurium TA100; test: Salmonella reversion assay after heating at 205° C., TA100; format: cell-based
Procedure: as §4, §5

[7] = system: Salmonella typhimurium ATCC 14028 attached to human buccal epithelial cells; format: cell-based; conditions: for adherence, mean value of attached bacteria: Table A-1
Procedure: Studies were conducted on the attachment of Salmonella typhimurium to human buccal epithelial cells using the modified procedure of Boussard et al., International J. Pharmaceutics 53: 253-256 (1989). In this study, the activities of cationic and anionic surfactant compounds as well as certain chelating agents were compared on the detachment of S. typhimurium from epithelial cells.
To this end, bacteria were grown on nutrient agar for 16 hours at 37° C. The cells were suspended in 0.008 M phosphate buffered saline (PBS) at pH 7.2 and washed two times at 4500 rpm for 10 minutes. The last suspension was diluted in PBS to obtain a cell concentration of 0.5 to 1×10^9 cells/ml. Human epithelial cells were obtained by swabbing the buccal surface of a healthy, nonsmoking donor. […] The number of living cells was estimated and the suspension diluted to 0.5 to 1×10^5 cells/ml.
Next, the suspension of the human buccal cells was mixed with an equal volume of the bacterial suspension (3.0 ml), or PBS (0.8 ml). Contact was allowed for 1.5 hours at 35° C. under agitation. The mixtures were then centrifuged for 10 minutes at 4500 rpm. Each suspension, 1.0 ml, was transferred into Eppendorf vials and washed with PBS at 1500 rpm for 10 minutes. After the washing, the cells were treated with 1.0 ml PBS or 1.0 ml of the test chemical solution. Treatment was performed by suspending and vortexing on a low speed for 30 seconds followed by centrifugation at 1500 rpm for 10 minutes.
After the treatment, the cells were washed once with PBS and then 20 μl of erythrosin B was added to each vial. The suspension was centrifuged at 1500 rpm for 10 minutes, and the cells were washed twice under the same conditions. The final pellet was suspended in 300 μl of PBS. This suspension was spread out onto microscope slides and dried overnight at room temperature. After counter staining with methylene blue, the slides were microscopically examined under oil immersion.

[8] = system: Salmonella typhimurium ATCC 14028; test: Effect on viability of Salmonella in suspension (Tables D-1 to D-3); format: cell-based; conditions: for bacterial viability: Table D-3
Procedure: EC50 values for four of the compounds were calculated from the bactericidal activity of the compounds as a function of molar concentration by a nonlinear regression algorithm.
In addition to the quaternary ammonium compounds, the antimicrobial activities of chelating agents Na2 -EDTA and EGTA were investigated. Na2 -EDTA was purchased from the Sigma Chemical Company (St. Louis, Mo.). Na2 -EDTA was dissolved in 0.04 M PPB prior to the assay and further dilutions were made in the same buffer.
EGTA was purchased from the Aldrich Chemical Company (Milwaukee, Wis.). EGTA was dissolved in 0.04 M PPB according to the procedure described by Harafuji and Ogawa (J. Biochem. 87:1305-1312 (1980)). After heating EGTA for 15 minutes at 80° C., the pH was adjusted to 7.0 by addition of NaOH. EGTA was filter-sterilized using a 0.2 μm Acro disc filter (Gelman Sciences; Ann Arbor, Mich.) prior to the assay. Further dilutions were made in sterile PPB.

Compound	Enrichment, chicken legs out of ten ([1]; 0.1%)	Rinse H2O ([1]; 0.1%)	Surfactant Solution ([1]; 0.1%)	Swabs, chicken legs producing the notated number of colonies ([1]; 0.1%)	Swabs, colonies ([1]; 0.1%)	Wash H2O, chicken legs producing the notated number of colonies ([1]; 0.1%)	Wash H2O, colonies ([1]; 0.1%)	Enrichment, chicken legs out of ten ([1]; 0.5%)	Rinse H2O ([1]; 0.5%)	Surfactant Solution ([1]; 0.5%)	Swabs, chicken legs producing the notated number of colonies ([1]; 0.5%)	Swabs, colonies ([1]; 0.5%)	Enrichment, chicken legs out of ten ([1]; 1.0%)	Rinse H2O ([1]; 1.0%)	Surfactant Solution ([1]; 1.0%)	Swabs, chicken legs producing the notated number of colonies ([1]; 1.0%)	Swabs, colonies ([1]; 1.0%)	CFU/ml on XLD agar [2]	also measured
C[C@H](CCC(=O)O)[C@H]1CC[C@H]2[C@@H]3CC[C@@H]4C[C@H](O)CC[C@]4(C)[C@H]3C[C@H](O)[C@]12C [Deoxycholic Acid, reference compound]	10/10	+ (1-10)	++ (11-100)	10/10	++ (11-100)	10/10	++ (11-100)	10/10	+ (1-10)	+ (1-10)	10/10	+ (1-10)	10/10	+ (1-10)	++ (11-100)	9/10	++ (11-100)	90 CFU/ml	Wash H2O, chicken legs producing the notated number of colonies ([1]; 0.5%): 10/10; Wash H2O, colonies ([1]; 0.5%): ++ (11-100); Wash H2O, chicken legs producing the notated number of colonies ([1]; 1.0%): 10/10; Wash H2O, colonies ([1]; 1.0%): ++ (11-100)
CC(C)(C)CC(C)(C)c1ccc(OCCOCC[N+](C)(C)Cc2ccccc2)cc1 [Benzethonium Chloride, reference compound]	2/10	+ (1-10)	0 CFU/ml	9/10	++ (11-100)	1/10	+ (1-10)	0/10	+ (1-10)	0 CFU/ml	8/10	++ (11-100)	0/10	+ (1-10)	0 CFU/ml	5/10	++ (11-100)	10 CFU/ml	Wash H2O, chicken legs producing the notated number of colonies ([1]; 0.5%): 0/10; Wash H2O, chicken legs producing the notated number of colonies ([1]; 1.0%): 0/10; preventing attachment of S. typhimurium on chicken skin (in words) [2]: most effective in preventing Salmonella contamination of chicken skin; Nitrocellulose lift (# of colonies) [2]: 250 # of colonies
Benzalkonium Chloride [reference compound]	1/10	+ (1-10)	0 CFU/ml	6/10	+ (1-10)	4/10	+ (1-10)	1/10	0 CFU/ml	0 CFU/ml	1/10	+ (1-10)	0/10	0 CFU/ml	0 CFU/ml	1/10	++ (11-100)	0 CFU/ml	Wash H2O, colonies ([1]; 0.5%): 0 CFU/ml; Wash H2O, colonies ([1]; 1.0%): 0 CFU/ml; Nitrocellulose lift (# of colonies) [2]: OG(R)
O=C1NCCN1c1ncc([N+](=O)[O-])s1 [Niridazole, reference compound]	–	–	–	–	–	–	–	–	–	–	–	–	–	–	–	–	–	–	control reversion frequency ([3]; TA98, -S9, 0.2 μg/plate): 358 ± 19 Revertants/plate; control reversion frequency ([4]; TA100, -S9, 0.2 μg/plate): 637 ± 57 Revertants/plate; control reversion frequency ([5]; TA98, -S9, 0.2 μg/plate): 126 ± 7 Revertants/plate; control reversion frequency ([6]; TA100, -S9, 0.2 μg/plate): 729 ± 30 Revertants/plate
CCCCCCCCCCCCCCCC[n+]1ccccc1 [CPB, cetylpyridinium bromide]	–	–	–	–	–	–	–	–	–	–	–	–	–	–	–	–	–	–	adherence, mean value of attached bacteria ([7]; 10 ug/ml): 28 ± 28; adherence, mean value of attached bacteria ([7]; 25 ug/ml): 23 ± 17; adherence, mean value of attached bacteria ([7]; 50 ug/ml): 25 ± 10
Nc1ccc2cc3ccccc3cc2c1 [2aminoanthracene, reference compound]	–	–	–	–	–	–	–	–	–	–	–	–	–	–	–	–	–	–	control reversion frequency ([3]; TA98, +S9, 2.5 μg/plate): 901 ± 90 Revertants/plate; control reversion frequency ([4]; TA100, +S9, 2.5 μg/plate): 1497 ± 68 Revertants/plate; control reversion frequency ([5]; TA98, +S9, 2.5 μg/plate): 909 ± 85 Revertants/plate; control reversion frequency ([6]; TA100, +S9, 2.5 μg/plate): 1103 ± 84 Revertants/plate
O=C(O)CN(CCOCCOCCN(CC(=O)O)CC(=O)O)CC(=O)O [EGTA, reference compound]	–	–	–	–	–	–	–	–	–	–	–	–	–	–	–	–	–	–	effect on bacteria attached to the epithelial cells (in words) ([7]; chelating agents, Na2-EDTA at 1250 μg/ml): no significant effect; bacterial viability ([8]; 1,250 μg/ml): 1.55 ± 0.09 × 10^9 CFU/ml; bacterial viability ([8]; 2,500 μg/ml): 1.45 ± 0.03 × 10^9 CFU/ml; bacterial viability ([8]; 5,000 μg/ml): 1.51 ± 0.18 × 10^8 CFU/ml; bactericidal effect against S. typhimurium (in words) ([8]; viability testing in suspension): ineffective; also recorded: no bactericidal effect
